Test results: patent US20240092758A1, “IMIDAZOLO INDAZOLE COMPOUNDS AS JAK INHIBITORS” (Theravance Biopharma R&D IP, LLC, priority 2021, published 2024)

Columns and labels:
[1] = test system: IL-13 induced STAT6 phosphorylation in BEAS-2B human lung epithelial cells; assay: Cellular JAKI potency assay (BEAS-2B); format: cell-based; details: Homo sapiens, BEAS-2B, BEAS-2B cells, read-out: BEAS2B pIC50 (converted)
Method in brief: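 AlphaLISA SureFire detection of Tyr641 pSTAT6 in lysates gave IC50s (4-parameter fit, expressed as pIC50). Cells: human BEAS-2B, exposed 1 h at 37 °C to compound dose series at 0.1% DMSO, then 30 min to IL-13 added at 80 ng/mL in HEPES-buffered HBSS with BSA.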

JAK2 = JAK2 (Homo sapiens (Human), UniProt O60674); assay: Biochemical JAK kinase assay (LanthaScreen), JAK2; details: for Ki: read-out: JAK2 pKi (converted)
Sequence of JAK2 (O60674 whole entry): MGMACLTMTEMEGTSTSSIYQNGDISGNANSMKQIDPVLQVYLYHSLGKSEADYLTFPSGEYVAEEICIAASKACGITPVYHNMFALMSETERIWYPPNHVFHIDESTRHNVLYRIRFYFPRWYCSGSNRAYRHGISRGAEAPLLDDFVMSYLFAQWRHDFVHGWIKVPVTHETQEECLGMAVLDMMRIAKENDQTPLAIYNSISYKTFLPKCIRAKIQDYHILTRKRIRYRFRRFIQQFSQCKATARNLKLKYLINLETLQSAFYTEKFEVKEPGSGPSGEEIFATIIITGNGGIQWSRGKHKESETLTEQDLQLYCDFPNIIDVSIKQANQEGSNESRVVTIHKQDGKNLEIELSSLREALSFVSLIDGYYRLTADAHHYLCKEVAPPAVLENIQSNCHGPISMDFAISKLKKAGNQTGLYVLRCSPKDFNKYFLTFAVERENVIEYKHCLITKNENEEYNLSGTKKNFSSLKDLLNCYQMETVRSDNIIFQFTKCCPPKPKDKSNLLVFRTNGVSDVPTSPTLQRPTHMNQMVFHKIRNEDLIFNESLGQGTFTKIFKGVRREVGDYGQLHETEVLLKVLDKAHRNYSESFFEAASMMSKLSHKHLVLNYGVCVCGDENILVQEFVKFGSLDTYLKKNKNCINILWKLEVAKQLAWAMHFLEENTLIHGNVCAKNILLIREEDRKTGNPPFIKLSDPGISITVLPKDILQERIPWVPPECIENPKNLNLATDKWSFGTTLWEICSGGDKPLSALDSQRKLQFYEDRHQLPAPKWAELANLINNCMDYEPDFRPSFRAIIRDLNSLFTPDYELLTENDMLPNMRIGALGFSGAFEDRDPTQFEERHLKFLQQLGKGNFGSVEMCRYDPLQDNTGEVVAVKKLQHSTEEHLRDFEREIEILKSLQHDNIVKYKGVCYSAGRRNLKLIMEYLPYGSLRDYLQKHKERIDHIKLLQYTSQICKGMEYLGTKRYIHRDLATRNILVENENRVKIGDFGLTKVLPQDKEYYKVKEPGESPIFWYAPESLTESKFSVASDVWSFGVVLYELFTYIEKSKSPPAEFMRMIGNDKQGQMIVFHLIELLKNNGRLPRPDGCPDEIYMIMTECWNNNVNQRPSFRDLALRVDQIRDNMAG
Method in brief: (§1)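 LanthaScreen format: phospho-STAT1 (pTyr701) detected with 2 nM Tb antibody after 10 mM EDTA quench. Kinase step used Km-level ATP and 200 nM STAT1 peptide, 1 h at ambient after 1 h pre-incubation. Inhibition fitted to IC50, reported as pKi.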

JAK1 = JAK1 (Homo sapiens (Human), UniProt P23458); assay: Biochemical JAK kinase assay (LanthaScreen), JAK1; details: for Ki: read-out: JAK1 pKi (converted)
Sequence of JAK1 (P23458 whole entry): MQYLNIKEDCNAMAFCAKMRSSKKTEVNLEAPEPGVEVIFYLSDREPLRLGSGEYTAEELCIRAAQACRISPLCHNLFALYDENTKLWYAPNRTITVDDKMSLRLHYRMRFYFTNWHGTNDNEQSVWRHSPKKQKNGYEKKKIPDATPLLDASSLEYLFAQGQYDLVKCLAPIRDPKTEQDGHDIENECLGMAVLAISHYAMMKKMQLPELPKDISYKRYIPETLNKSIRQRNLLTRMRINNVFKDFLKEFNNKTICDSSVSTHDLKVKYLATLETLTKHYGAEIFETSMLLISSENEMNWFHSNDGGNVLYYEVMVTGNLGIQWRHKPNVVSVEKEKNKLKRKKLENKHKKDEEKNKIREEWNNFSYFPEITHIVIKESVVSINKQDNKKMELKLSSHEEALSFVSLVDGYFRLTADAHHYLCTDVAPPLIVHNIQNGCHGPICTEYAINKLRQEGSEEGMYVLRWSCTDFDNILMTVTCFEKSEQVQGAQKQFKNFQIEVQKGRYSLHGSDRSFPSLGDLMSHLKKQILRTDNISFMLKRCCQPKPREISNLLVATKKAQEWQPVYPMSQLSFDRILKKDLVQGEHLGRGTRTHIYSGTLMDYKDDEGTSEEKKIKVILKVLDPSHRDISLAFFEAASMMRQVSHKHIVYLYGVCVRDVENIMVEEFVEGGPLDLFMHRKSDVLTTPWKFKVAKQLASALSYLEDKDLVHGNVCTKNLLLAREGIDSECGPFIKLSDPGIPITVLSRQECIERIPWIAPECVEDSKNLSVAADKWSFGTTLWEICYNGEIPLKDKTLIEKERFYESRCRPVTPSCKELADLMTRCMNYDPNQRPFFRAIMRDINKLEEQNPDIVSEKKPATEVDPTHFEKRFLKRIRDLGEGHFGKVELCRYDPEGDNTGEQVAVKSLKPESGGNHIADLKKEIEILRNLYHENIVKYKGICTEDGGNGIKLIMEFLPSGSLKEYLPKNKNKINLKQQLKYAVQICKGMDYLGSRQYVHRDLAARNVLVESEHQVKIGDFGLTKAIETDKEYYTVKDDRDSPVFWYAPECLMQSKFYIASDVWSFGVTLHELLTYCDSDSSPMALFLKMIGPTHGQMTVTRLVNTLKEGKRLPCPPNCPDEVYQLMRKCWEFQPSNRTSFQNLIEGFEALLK
Method in brief: as §1

Structure (SMILES)	IC50 [1]	Ki (JAK2)	Ki (JAK1)	JAK2 pKi (JAK2)	JAK1 pKi (JAK1)
CCc1cc(O)ccc1-c1ccc2c(-c3nc(C4=C(C)CCNC4)c[nH]3)n[nH]c2c1 [Example 232]	3.16 to 10 nM	0.1 to 1 nM	0.1 to 1 nM		
CCc1cc(O)ccc1-c1ccc2c(-c3nc(C4=CCCNC4C)c[nH]3)n[nH]c2c1 (stereo not drawn) [Example 233]	10 to 31.6 nM	0.1 to 1 nM	0.1 to 1 nM		
CCc1cc(O)ccc1-c1ccc2c(-c3nc(C4=CCCNC4C)c[nH]3)n[nH]c2c1F (stereo not drawn) [Example 237]	10 to 31.6 nM		0.1 to 1 nM	A (A represents a pKi value ≥10 (Ki≤0.1 nM))	
CCc1cc(O)ccc1-c1ccc2c(-c3nc(C4=C[C@H](CO)NC4)c[nH]3)n[nH]c2c1 [Example 239]	31.6 to 100 nM	0.1 to 1 nM	0.1 to 1 nM		
CCc1cc(O)ccc1-c1ccc2c(-c3nc(C4=C[C@@H](CO)NC4)c[nH]3)n[nH]c2c1 [Example 240]	31.6 to 100 nM	0.1 to 1 nM	0.1 to 1 nM		
CCc1cc(O)ccc1-c1ccc2c(-c3nc(C4=C[C@@H](COC)NC4)c[nH]3)n[nH]c2c1 [Example 242]	3.16 to 10 nM	0.1 to 1 nM			A (A represents a pKi value ≥10 (Ki≤0.1 nM))
CCc1cc(O)ccc1-c1ccc2c(-c3nc(C4=C[C@H](CC#N)NC4)c[nH]3)n[nH]c2c1 [Example 243]	3.16 to 10 nM			A (A represents a pKi value ≥10 (Ki≤0.1 nM))	A (A represents a pKi value ≥10 (Ki≤0.1 nM))
CCc1cc(O)ccc1-c1ccc2c(-c3nc(C4=C[C@H](CC#N)NC4)c[nH]3)n[nH]c2c1F [Example 247]	10 to 31.6 nM	0.1 to 1 nM	0.1 to 1 nM		
CCc1cc(O)ccc1-c1ccc2c(-c3nc(C4=C[C@@H](CC#N)NC4)c[nH]3)n[nH]c2c1 [Example 248]	10 to 31.6 nM	0.1 to 1 nM	0.1 to 1 nM		
CCc1cc(O)ccc1-c1ccc2c(-c3nc(C4=C[C@@H](CC#N)NC4)c[nH]3)n[nH]c2c1F [Example 249]	10 to 31.6 nM	0.1 to 1 nM	0.1 to 1 nM		
CCc1cc(O)ccc1-c1ccc2c(-c3nc(C4=C[C@H](C(=O)OC)NC4)c[nH]3)n[nH]c2c1F [Example 250]	31.6 to 100 nM	0.1 to 1 nM	0.1 to 1 nM		
CCc1cc(O)ccc1-c1ccc2c(-c3nc(C4=C[C@@H](C(=O)OC)NC4)c[nH]3)n[nH]c2c1F [Example 251]	10 to 31.6 nM	0.1 to 1 nM	0.1 to 1 nM		
CCc1cc(O)ccc1-c1ccc2c(-c3nc(C4=C[C@@H](C(=O)N5CC(N(C)C)C5)NC4)c[nH]3)n[nH]c2c1F [Example 252]	100 to 316 nM	0.1 to 1 nM	0.1 to 1 nM		
CCc1cc(O)ccc1-c1ccc2c(-c3nc(C4=C[C@H](CC(=O)OC)NC4)c[nH]3)n[nH]c2c1F [Example 253]	3.16 to 10 nM			A (A represents a pKi value ≥10 (Ki≤0.1 nM))	A (A represents a pKi value ≥10 (Ki≤0.1 nM))
CCc1cc(O)ccc1-c1ccc2c(-c3nc(C4=C[C@@H](CC(=O)OC)NC4)c[nH]3)n[nH]c2c1F [Example 254]	10 to 31.6 nM	0.1 to 1 nM	0.1 to 1 nM		
CCc1cc(O)ccc1-c1ccc2c(-c3nc(C4=C[C@@H](CC(=O)N(C)C)NC4)c[nH]3)n[nH]c2c1F [Example 256]	31.6 to 100 nM			A (A represents a pKi value ≥10 (Ki≤0.1 nM))	A (A represents a pKi value ≥10 (Ki≤0.1 nM))
CCc1cc(O)ccc1-c1ccc2c(-c3nc(C4=CC[C@H](C)N(CCO)C4)c[nH]3)n[nH]c2c1F [Example 257]	10 to 31.6 nM	0.1 to 1 nM	0.1 to 1 nM		
CCc1cc(O)ccc1-c1ccc2c(-c3nc(C4=CC[C@H](C)N(CCCO)C4)c[nH]3)n[nH]c2c1F [Example 258]	10 to 31.6 nM	0.1 to 1 nM	0.1 to 1 nM		
CCc1cc(O)ccc1-c1ccc2c(-c3nc(C4=CC[C@H](C)N(C(C)CO)C4)c[nH]3)n[nH]c2c1F (stereo partly drawn) [Example 259]	10 to 31.6 nM	0.1 to 1 nM	0.1 to 1 nM		
CCc1cc(O)ccc1-c1ccc2c(-c3nc(C4=CC[C@H](C)N(CCC(C)(C)O)C4)c[nH]3)n[nH]c2c1F [Example 260]	10 to 31.6 nM	0.1 to 1 nM	0.1 to 1 nM		
CCc1cc(O)ccc1-c1ccc2c(-c3nc(C4=CC[C@H](C)N(C[C@H](C)CO)C4)c[nH]3)n[nH]c2c1F [Example 261]	10 to 31.6 nM	0.1 to 1 nM	0.1 to 1 nM		
CCc1cc(O)ccc1-c1ccc2c(-c3nc(C4=CC[C@H](C)N(C[C@@H](C)CO)C4)c[nH]3)n[nH]c2c1F [Example 262]	10 to 31.6 nM	0.1 to 1 nM	0.1 to 1 nM		

Structure (SMILES)	IC50 [1]	Ki (JAK2)	Ki (JAK1)	JAK2 pKi (JAK2)	JAK1 pKi (JAK1)
CCc1cc(O)ccc1-c1ccc2c(-c3nc(C4=C[C@H](CO)N(CCO)C4)c[nH]3)n[nH]c2c1F [Example 263]	10 to 31.6 nM			A (A represents a pKi value ≥10 (Ki≤0.1 nM))	A (A represents a pKi value ≥10 (Ki≤0.1 nM))
CCc1cc(O)ccc1-c1ccc2c(-c3nc(C4=C[C@H](CO)N(CCCO)C4)c[nH]3)n[nH]c2c1F [Example 264]	10 to 31.6 nM		0.1 to 1 nM	A (A represents a pKi value ≥10 (Ki≤0.1 nM))	
CCc1cc(O)ccc1-c1ccc2c(-c3nc(C4=CC[C@H](C)N([C@H]5C[C@@H](O)C5)C4)c[nH]3)n[nH]c2c1F [Example 265]	3.16 to 10 nM	0.1 to 1 nM	0.1 to 1 nM		
CCc1cc(O)ccc1-c1ccc2c(-c3nc(C4=CC[C@H](C)N(CCCOC)C4)c[nH]3)n[nH]c2c1F [Example 266]	10 to 31.6 nM	0.1 to 1 nM	0.1 to 1 nM		
CCc1cc(O)ccc1-c1ccc2c(-c3nc(C4=CC[C@H](C)N(CC5COC5)C4)c[nH]3)n[nH]c2c1F [Example 267]	10 to 31.6 nM	0.1 to 1 nM	0.1 to 1 nM		
CCc1cc(O)ccc1-c1ccc2c(-c3nc(C4=CC[C@H](C)N(C5CCOCC5)C4)c[nH]3)n[nH]c2c1F [Example 268]	10 to 31.6 nM	0.1 to 1 nM	0.1 to 1 nM		
CCc1cc(O)ccc1-c1ccc2c(-c3nc(C4=CC[C@H](C)N(C[C@H]5COCCN5)C4)c[nH]3)n[nH]c2c1F [Example 269]	31.6 to 100 nM	0.1 to 1 nM	0.1 to 1 nM		
CCc1cc(O)ccc1-c1ccc2c(-c3nc(C4=CC[C@H](C)N(CCN5CCOCC5)C4)c[nH]3)n[nH]c2c1F [Example 270]	10 to 31.6 nM	0.1 to 1 nM	0.1 to 1 nM		
CCc1cc(O)ccc1-c1ccc2c(-c3nc(C4=CC[C@H](C)N(CCN5CCCC5=O)C4)c[nH]3)n[nH]c2c1F [Example 271]	10 to 31.6 nM	0.1 to 1 nM	0.1 to 1 nM		
CCc1cc(O)ccc1-c1ccc2c(-c3nc(C4=C[C@H](CO)N(CCCOC)C4)c[nH]3)n[nH]c2c1F [Example 272]	3.16 to 10 nM			A (A represents a pKi value ≥10 (Ki≤0.1 nM))	A (A represents a pKi value ≥10 (Ki≤0.1 nM))
CCc1cc(O)ccc1-c1ccc2c(-c3nc(C4=C[C@H](CO)N(C5COC5)C4)c[nH]3)n[nH]c2c1F [Example 273]	10 to 31.6 nM		0.1 to 1 nM	A (A represents a pKi value ≥10 (Ki≤0.1 nM))	
CCc1cc(O)ccc1-c1ccc2c(-c3nc(C4=C[C@H](CO)N(C5CCOCC5)C4)c[nH]3)n[nH]c2c1F [Example 274]	10 to 31.6 nM			A (A represents a pKi value ≥10 (Ki≤0.1 nM))	A (A represents a pKi value ≥10 (Ki≤0.1 nM))
CCc1cc(O)ccc1-c1ccc2c(-c3nc(C4=CC[C@H](C)N(CC(=O)NC)C4)c[nH]3)n[nH]c2c1F [Example 275]	10 to 31.6 nM	0.1 to 1 nM	0.1 to 1 nM		
CCc1cc(O)ccc1-c1ccc2c(-c3nc(C4=CC[C@H](C)N(CCS(C)(=O)=O)C4)c[nH]3)n[nH]c2c1F [Example 276]	31.6 to 100 nM	0.1 to 1 nM	1 to 10 nM		
CCc1cc(O)ccc1-c1ccc2c(-c3nc(C4=CC[C@H](C)N(CCS(=O)(=O)NC)C4)c[nH]3)n[nH]c2c1F [Example 277]	31.6 to 100 nM	0.1 to 1 nM	1 to 10 nM		
CCc1cc(O)ccc1-c1ccc2c(-c3nc(C4=CC[C@H](C)N(CCNS(C)(=O)=O)C4)c[nH]3)n[nH]c2c1F [Example 278]	10 to 31.6 nM	0.1 to 1 nM	0.1 to 1 nM		
CCc1cc(O)ccc1-c1ccc2c(-c3nc(C4=CCN(CC)C4)c[nH]3)n[nH]c2c1F [Example 283]	3.16 to 10 nM			A (A represents a pKi value ≥10 (Ki≤0.1 nM))	A (A represents a pKi value ≥10 (Ki≤0.1 nM))
CCc1cc(O)c(F)cc1-c1ccc2c(-c3nc(C4=CCNCC4)c[nH]3)n[nH]c2c1 [Example 284]	3.16 to 10 nM			A (A represents a pKi value ≥10 (Ki≤0.1 nM))	A (A represents a pKi value ≥10 (Ki≤0.1 nM))
CCc1cc(O)c(F)cc1-c1ccc2c(-c3nc(C4=CCNC4)c[nH]3)n[nH]c2c1 [Example 285]	3.16 to 10 nM			A (A represents a pKi value ≥10 (Ki≤0.1 nM))	A (A represents a pKi value ≥10 (Ki≤0.1 nM))
CCOC(=O)C[C@H]1C=C(c2c[nH]c(-c3n[nH]c4c(F)c(-c5ccc(O)cc5CC)ccc34)n2)CN1 [Example 286]	3.16 to 10 nM	0.1 to 1 nM	0.1 to 1 nM		
CCc1cc(O)ccc1-c1ccc2c(-c3nc(C4=CCN([C@H]5CC[C@@H](O)CC5)C4)c[nH]3)n[nH]c2c1 [Example 287]	3.16 to 10 nM			A (A represents a pKi value ≥10 (Ki≤0.1 nM))	A (A represents a pKi value ≥10 (Ki≤0.1 nM))
